From ChEMBL document CHEMBL1153123, “Antiplasmodial activity of piperazine sulfonamides” (Bioorg Med Chem Lett, 2010)

Assays:
Plasmodium falciparum [1] = experiment: Antiplasmodial activity against Plasmodium falciparum Dd2 in human O+ erythrocytes after 72 hrs by DAPI staining; format: functional, organism-based; conditions: Dd2, 72 h
Plasmodium falciparum [2] = experiment: Antiplasmodial activity against Plasmodium falciparum 3D7 in human O+ erythrocytes after 72 hrs by DAPI staining; format: functional, organism-based; conditions: 3D7, 72 h

Compound | EC50 (Plasmodium falciparum [1]) | EC50 (Plasmodium falciparum [2])
O=[N+]([O-])c1ccc(S(=O)(=O)N2CCN(C(=S)NCC3CCCO3)CC2)cc1 (stereo not drawn) | 337 nM | 313 nM
O=S(=O)(c1ccc(Cl)cc1)N1CCN(C(=S)NCC2CCCO2)CC1 (stereo not drawn) | 860 nM | 667 nM
O=S(=O)(c1ccc2c(c1)OCCO2)N1CCN(C(=S)NCc2ccccc2)CC1 | > 10000 nM | 6490 nM
O=C(NCc1ccco1)N1CCN(S(=O)(=O)c2ccc(Cl)cc2)CC1 | 2300 nM | 2550 nM
CS(=O)(=O)N1CCN(C(=S)NCc2ccco2)CC1 | > 10000 nM | > 10000 nM
O=S(=O)(c1ccccc1F)N1CCN(C(=S)NCc2ccccc2)CC1 | 3130 nM | 2410 nM
O=S(=O)(c1ccc(Cl)cc1)N1CCN(C(=S)NCc2ccc(Cl)cc2)CC1 | 400 nM | –
O=S(=O)(c1ccc(Br)cc1Cl)N1CCN(C(=S)NCc2ccccc2)CC1 | 873 nM | 830 nM
Cc1cc(Nc2ccccc2)nc(N2CCN(S(=O)(=O)c3ccc([N+](=O)[O-])cc3)CC2)n1 | 10000 nM | 11100 nM
CCNC(=S)N1CCN(S(=O)(=O)c2ccccc2C(F)(F)F)CC1 | > 10000 nM | > 10000 nM
O=S(=O)(c1ccc(F)c(F)c1F)N1CCN(C(=S)NCc2ccccc2)CC1 | 1610 nM | 1520 nM
O=S(=O)(c1ccc(Cl)cc1)N1CCN(C(=S)NCc2ccco2)CC1 | 544 nM | 615 nM
O=S(=O)(c1c(Cl)cc(Br)cc1Cl)N1CCN(C(=S)NCc2ccccc2)CC1 | 4410 nM | 2670 nM

Further lines, results first:

EC50 (Plasmodium falciparum [1]) | EC50 (Plasmodium falciparum [2]) | Compound
> 10000 nM | – | O=[N+]([O-])c1ccc(S(=O)(=O)N2CCN(Cc3ccccc3)CC2)cc1
211 nM | – | O=[N+]([O-])c1ccc(S(=O)(=O)N2CCN(C(=S)NCCc3ccccc3)CC2)cc1
354 nM | 310 nM | COCCNC(=S)N1CCN(S(=O)(=O)c2ccc([N+](=O)[O-])cc2)CC1
13000 nM | 11400 nM | C/N=C(/SCc1ccccc1)N1CCN(S(=O)(=O)c2ccc([N+](=O)[O-])cc2)CC1
1920 nM | 1860 nM | O=S(=O)(c1ccccc1)N1CCN(C(=S)NCc2ccccc2)CC1
4480 nM | 6410 nM | O=C(NCc1ccco1)N1CCN(S(=O)(=O)c2ccc([N+](=O)[O-])cc2)CC1
6190 nM | 6060 nM | O=[N+]([O-])c1ccc(S(=O)(=O)N2CCC(C(=S)NCc3ccccc3)CC2)cc1
1960 nM | 1230 nM | CCOc1ccc(S(=O)(=O)N2CCN(C(=S)NCc3ccccc3)CC2)cc1
1690 nM | 1250 nM | O=[N+]([O-])c1ccc(S(=O)(=O)N2CCN(C(=S)CCc3ccccc3)CC2)cc1
1970 nM | 1470 nM | O=S(=O)(c1cccc(F)c1)N1CCN(C(=S)NCc2ccccc2)CC1
5810 nM | 3970 nM | Cc1cc(NCc2ccccc2)nc(N2CCN(S(=O)(=O)c3ccc([N+](=O)[O-])cc3)CC2)n1
6050 nM | – | O=[N+]([O-])c1ccc(S(=O)(=O)N2CCN(C/C=C/c3ccccc3)CC2)cc1
103 nM | 56 nM | O=[N+]([O-])c1ccc(S(=O)(=O)N2CCN(C(=S)NCc3ccccc3)CC2)cc1
117 nM | 64 nM | O=[N+]([O-])c1ccc(S(=O)(=O)N2CCN(C(=S)NCc3ccco3)CC2)cc1
3740 nM | 5950 nM | O=C(NCc1ccccc1)C1CCN(S(=O)(=O)c2ccc([N+](=O)[O-])cc2)CC1
> 25000 nM | > 25000 nM | N=C(NCc1ccccc1)N1CCN(S(=O)(=O)c2ccc([N+](=O)[O-])cc2)CC1
13600 nM | 13500 nM | O=C(CCc1ccccc1)N1CCN(S(=O)(=O)c2ccc([N+](=O)[O-])cc2)CC1
492 nM | 447 nM | O=S(=O)(c1ccc(F)cc1)N1CCN(C(=S)NCc2ccccc2)CC1
